The subject of experiment [1] is smooth muscle of the vas deferens. The note with it: mammalian male reproductive system; cited from earlier work.
Experiment [2] concerns human platelet aggregation (collagen-induced, platelet rich plasma). The note with it: compared with compounds of Formula III; cited from earlier work.
Experiment [3] relates to female reproductive system. Particulars: cited from earlier work.
The subject of experiment [4] is gastric secretion. As to the kind of experiment: Effects on Gastric Secretion in the Rat (Test B). The format is in vivo. Particulars: pylorus ligated, s.c. 2 x 1.5 mg/kg, 4 hr. An excerpt: B. Evaluation of the Effects of Prostaglandin Analogs III on Gastric Secretion in the Rat
A procedure based on that described by Lipmann (J. Pharm. Pharmacol., 21:335 [1968]) was used to assess the influence of test compounds on gastric secretion. Rats of one sex weighing 150 to 200 g were randomly divided into groups of six animals each and fasted for 48 hr previous to the experiments, water being available ad limitum. The animals were anesthetized with ether, the abdomen was opened through a midline incision and the pylorus was ligated. Test compounds were diluted from stock solution so as to administer a dose of 1.5 mg/kg in a volume equivalent to 1 ml/kg. Subcutaneous injections were applied immediately after surgery and again 2 hr later, so that a total dose of 3.0 mg/kg was administered. Dilutions were made with phosphate buffer (pH 7.38) as recommended by Lee et al. (Prostaglandins 3:29 [1973]), in order to insure adequate stability of drugs at the subcutaneous depot. Each compound was tested in one group of rats; an additional control group received only the vehicle.
Four hr after pyloric ligation the animals were killed with ether, the cardias ligated and the stomachs removed. The volume of gastric secretion was measured and the contents centrifuged at 5000 rpm for 10 min. Total acid in the supernatant was titrated against a 0.1 N sodium hydroxide solution and the amount expressed in mEq.
Volume and total acid values of the treated group were compared with those of the controls by the "T" test. Anti-secretory activity was scored according to the following scale: […]

The subject of experiment [5] is rat uterus. As to the kind of experiment: Effects on the Rat Uterus (Test F). Particulars: rat uterus segments, 0.001 to 10.0 mcg/ml, 29° C. As for the experimental part: F. Evaluation of the Effects of Prostaglandin Analogs III on the Rat Uterus
The uterine stimulant effect of test compounds is determined in segments of uterus obtained from rats (140-160 g) pretreated subcutaneously with 1 mg/kg of diethylstibesterol 18 hr before the experiment. The tissues are placed in 10 ml chambers filled with de-Jalon solution at 29° C. and bubbled with 95% O2 and 5% CO2, and prepared for isometric recording with force displacement transducers. Preparations are stretched to an initial tension of 1 g and are left undisturbed for 30 min, after which two responses to 1 mcg/ml of carbachol added to the bath at a 10 min interval, are obtained (the value of the second response is recorded). Responses to increasing concentrations of the test compound (0.001 to 10.0 mcg/ml with one log intervals) are then recorded every 10 min. Preparations are washed four times after each response. All doses of drugs are administered in a 0.1 ml volume. Since it has been observed that the magnitude of the second response to carbachol, which is approximately 10% greater than the first, is close to the maximal response of the tissue, such value is taken as a measure of the sensititity of the particular segment. Responses to each concentration of the test compound are expressed in terms of percentage of the second response to carbachol and the ED50 (dose producing a response of 50% that of carbachol) is calculated graphically. Activity is scored according to the following scale: […]

Experiment [6] relates to blood pressure. As to the kind of experiment: Effects on Blood Pressure and Heart Rate in the Anesthetized Cat (Test D). The experiment is classed as in vivo. The note with it: i.v. 0.01 to 10.0 mcg/kg, scored on hypotension. The procedure: D. Evaluation of the Effects of Prostaglandin Analogs III on Blood Pressure and Heart Rate in the Anesthetized Cat
The acute effects of test compounds on blood pressure and heart rate were determined in cats of either sex anesthetized with a mixture of pentobarbital sodium (35 mg/kg, i.v.) and barbital sodium (100 mg/kg, i.v.). Cannulas were placed in the trachea to allow adequate spontaneous ventilation, in a femoral artery for blood pressure recording with a strain gage transducer, and in a saphenous vein for drug administration. Heart rate was recorded by means of a cardiotachometer driven by the R wave of the electrocardiogram. After a period of 10 min of stable recordings of blood pressure and heart rate, the test compound was administered intravenously at doses increasing from 0.01 to 10.0 mcg/kg, spaced one log and injected at 10 min intervals. All doses were injected in a volume of 0.1 ml/kg. Modifications of blood pressure and heart rate induced by the test compound were expressed both in absolute units (mmHg and beats/min) and as percent of values recorded immediately before administration of each dose. Biphasic responses were tabulated in the order in which they occur. The direction of the observed changes was also noted (+ for increase and - for decrease).
Activity of compounds in this test was judged only on the basis of the degree of hypotension observed. Thus, the ED50 mmHg (dose decreasing blood pressure by 50 mmHg) was calculated graphically and the compound scored according to the following scale: […]

Experiment [7] has as its system femoral blood flow. As to the kind of experiment: Effects on Femoral Blood Flow in the Dog (Test C). The experiment is classed as in vivo, dog (mongrel). Particulars: anesthetized dog, intraarterial 0.001 to 10 mcg. The procedure:
C. Evaluation of the Effects of Prostaglandin Analogs III on the Femoral Blood Flow in the Dog
The peripheral vasodilator or constrictor effects of test compounds were determined in mongrel dogs of either sex, weighing between 10 and 20 kg anesthestized intravenously with 35 mg/kg of sodium pentobarbital. An external iliac artery was dissected immediately above the femoral arch for a length of approximately 5 cm and a previously calibrated, non-connulating electromagnetic flowmeter sensor with a lumen between 2.5 and 3.5 mm was placed snugly around the vessel. Cannulas were placed in a branch of the artery arising distally to the location of the flowmeter sensor for intraarterial drug administrations, in the contralateral femoral artery for systemic blood pressure recordings and in the trachea for artificial respiration with room air. Femoral blood flow and systemic blood pressure were continuously recorded with an electromagnetic flowmeter and pressure transducer, respectively.
After an adequate control period, test compounds were injected intraarterially at one log-spaced doses ranging from 0.001 to 10 mcg., in a volume of 0.5 ml and at 5 to 10 min intervals. Maximum changes in bloodflow, as well as any variations in blood pressure, were tabulated for each dose in absolute values (ml/min and mmHg). The calculations were made taking as control values those existing immediately before administration of each dose. The direction of the observed change (+ for increase and - for decrease) was also noted. The dose changing bloodflow by 100 ml/min (ED100 ml/min) was calculated graphically and was used for scoring activity as follows: […]

Experiment [8] has as its system blood pressure (hypertensive rat). As to the kind of experiment: Effects on Blood Pressure in the Hypertensive Rat (Test E). The experiment is classed as in vivo. Also on record: key: 0: Not significant at any time interval; 1: Significant at one time interval; 2: Significant at two time intervals; 3: Significant at three time intervals; 4: Significant at all four intervals. The note with it: 1 mg/kg intraperitoneal, 2, 4, 6 and 8 hr. The procedure:
E. Evaluation of the Effects of Prostaglandin Analogs III on Blood Pressure in the Hypertensive Rat
The acute antihypertensive activity of test compounds is determined in rats made hypertensive by the procedure of Grollman (A. Proc. Soc. Exper. Biol. Med., 57:102, [1944]). Female rats weighing between 60 and 100 g are anesthetized with ether, the right kidney approached through a flank retroperitoneal incision, decapsulated and tied with a figure-of-eight ligature. The animals are left to recover and two weeks later are again anesthetized and the contralateral kidney removed. Four weeks after the second operation the rats are subjected to indirect blood pressure measurements and those showing systolic pressure values greater than 160 mmHg are selected for drug testing.
Blood pressure is measured in the tail with an inflatable occluding cuff placed at the base of the extremity and a pulse detector located distally. The cuff is inflated to approximately 300 mmHg and is slowly deflated until pulsations appear, indicating the level of systolic pressure; diastolic pressure is not recorded by this procedure. All measurements are carried out in unanesthetized, unsedated animals maintained in a warm environment during the recording procedure and for at least 6 hr before. In all cases, three pressure readings are obtained in succession and mean values are calculated thereof.
Experiments are carried out in groups of five hypertensive rats in which systolic pressure is determined immediately before and 2, 4, 6 and 8 hr after the intraperitoneal administration of the test compound at a dose of 1 mg/kg. Drugs are diluted from stock solutions with phosphate buffer (Lee et al., Prostaglandins 3:29 [1973]), so as to inject this quantity in a volume of 1 ml/kg. Changes from control blood pressure values are calculated for each interval both in mmHg and in per-cent, and evaluated for significance by means of Wilcoxon's signed rank test (Wilcoxon and Wilcox, Some rapid approximate statistical procedures, Lederle Laboratories, Pearl River [1964]).

Molecules are shown by their SMILES. “Also recorded” adds a separate entry of the source.

In the case of `CCCCC[C@H](O)/C=C/[C@H]1[C@H](O)CC(=O)[C@@H]1CCCCCCC(=O)O` [PGE1], the “contraction of the vas deferens” value in experiment [1] was “contracts the smooth muscle of the vas deferens”. The “inhibition of platelet aggregation, natural prostaglandins, in words” value in experiment [2] is on record as “displays a similar activity”.
For the compound `CCCCC[C@H](O)/C=C/[C@@H]1[C@@H](C/C=C\CCCC(=O)O)[C@@H](O)C[C@H]1O` [PGF2], the “effects on uterus, fertility, gestation and labor” value in experiment [3] is on record as “exerts potent oxytocic effects in inducing labor”.
On to `CCCCC[C@H](O)/C=C/[C@@H]1[C@@H](C/C=C\CCCC(=O)O)[C@@H](O)C[C@H]1O` [PGF2α], for which, in experiment [3], the “effects on uterus, fertility, gestation and labor” value is “has contragestational effects; also recorded: induces spontaneous abortions in early pregnancy”.
Turning to `CCC1CC([C@H](O)/C=C/C2C(O)CC(O)C2CCCCCCCO)C1` (stereo partly drawn) [TR-4627, 16,18-Methanoprost-13E-en-1,9β,11α,15S-tetraol], the “Activity value, Test B: Inhibition of a Rodent Gastric Secretion (% decrease in acidity)” value in experiment [4] is listed as 0 (<26). The “Activity value, Test F: Effects on Rat Uterus (ED50, response of 50% that of carbachol)” value in experiment [5] is 0 (>10).
Regarding `CCC1CC(C(/C=C/C2C=CC(=O)C2CCCCCCC(=O)OC)OC(C)=O)C1` (stereo not drawn) [TR-4281, Methyl 15RS-acetoxy-16,18-methano-9-oxoprosta-10,13E-dien-1-oate], the “Activity value, Test B: Inhibition of a Rodent Gastric Secretion (% decrease in acidity)” value in experiment [4] is 0 (<26). Also, the “Activity value, Test F: Effects on Rat Uterus (ED50, response of 50% that of carbachol)” value in experiment [5] is on record as 0 (>10).
With `CCC1CC([C@H](O)/C=C/C2C(O)CC(O)C2CCCCCCC(=O)OC)C1` (stereo partly drawn) [TR-4624, Methyl 16,18-methano-9α,1α,15S-trihydroxyprost-13E-en-1-oate], in experiment [4], the “Activity value, Test B: Inhibition of a Rodent Gastric Secretion (% decrease in acidity)” value was 0 (<26). Besides, in experiment [5], the “Activity value, Test F: Effects on Rat Uterus (ED50, response of 50% that of carbachol)” value was 0 (>10). Besides, the “Activity value, Test D: Increase in Normal Feline Blood Pressure and Heart Rate (ED50 mmHg)” value in experiment [6] is on record as 0 (>10.1). Further, the “Activity value, Test C: Increase in Canidae Femoral Blood Flow (ED100 ml/min)” value (shortened to “Activity value, Test C: Increase”) in experiment [7] is listed as 0 (>10.0). For the same compound, the “Activity value, Test E: Effects on Blood Pressure in Hypertensive Rat (blood pressure decrease)” value (“Activity value … (blood pressure decrease)” below) in experiment [8] is 0.
For `CCC1CC(C)([C@@H](O)/C=C/C2C=CC(=O)C2CCCCCCC(=O)OC)C1` (stereo partly drawn) [TR-4695, Methyl 15S-hydroxy-16,18-methano-16-methyl-9-oxoprosta-10,13E-dien-1-oate], the “Activity value, Test B: Inhibition of a Rodent Gastric Secretion (% decrease in acidity)” value in experiment [4] was 0 (<26). Moreover, the “Activity value, Test F: Effects on Rat Uterus (ED50, response of 50% that of carbachol)” value in experiment [5] is listed as 0 (>10).
On to `CCC1CC([C@H](O)/C=C/C2C(O)CC(O)C2CCCCCCC(=O)OC)C1` (stereo partly drawn) [TR-4625, Methyl 16,18-methano-9β,11α,15S-trihydroxyprost-13E-en-1-oate], for which the “Activity value, Test B: Inhibition of a Rodent Gastric Secretion (% decrease in acidity)” value in experiment [4] is recorded as 0 (<26). The “Activity value, Test F: Effects on Rat Uterus (ED50, response of 50% that of carbachol)” value in experiment [5] was 0 (>10). For the same compound, the “Activity value, Test D: Increase in Normal Feline Blood Pressure and Heart Rate (ED50 mmHg)” value in experiment [6] is on record as 0 (>10.1). For the same compound, the “Activity value, Test C: Increase” value in experiment [7] is reported as 0 (>10.0). In experiment [8], the “Activity value … (blood pressure decrease)” value amounted to 0.
Regarding `CCCCC1([C@@H](O)/C=C/[C@H]2[C@H](O)CC(=O)[C@@H]2CCCCCCCO)CCC1` [TR-4646, 16,16-Propano-1,11α,15S-trihydroxyprost-13E-en-9-one], the EC50 in experiment [5] (read-out: Activity value, Test F: Effects on Rat Uterus (ED50, response of 50% that of carbachol)) is more than 10 µg/mL. Further, the ED (50 mmHg) in experiment [6] (Felis catus, iv, read-out: Activity value, Test D: Normal Feline Blood Pressure and Heart Rate (ED50 mmHg)) was more than 0.0101 mg/kg. In addition, the “Activity value, Test C: Increase” value in experiment [7] is listed as 0 (>10.0). Further, the “Activity value … (blood pressure decrease)” value in experiment [8] is reported as 0.

The values are drawn from US4220795A, “Cyclobutyl substituted derivatives of prostaglandin analogs” (Miles Laboratories, Inc., priority 1978, dated 1980).
